Assay [1] deals with NE transporter. Put plainly: Binding at native NE transporter. To be noted: Table 8; Ki rNE Uptk divided by Ki hGAL3. Here is the method:
(§1) The binding properties of the compounds of the present invention were evaluated at one or more cloned receptors or native, tissue-derived transporters, using protocols described below.
(§2) The methods to determine binding affinity at native transporters are described in the following publications: 5HT transporter and NE transporter (Owens et al., 1997), and DA transporter (Javitch et al, 1984).
(§3) Binding data were analyzed using nonlinear regression and statistical techniques available in the GraphPAD Prism package (San Diego, CA). Enzymatic assay data were derived from a standard curve of reference compound data.

In assay [2] the target is NE transporter (Rattus norvegicus, UniProt Q63380). Put plainly: Binding at native NE transporter. To be noted: Table 7; native transporter, head prints r (rat); read-out: rNE Uptk Ki. On the procedure: as §1, §2, §3
NE transporter (Rattus norvegicus, UniProt Q63380), sequence (Q63380 1-617): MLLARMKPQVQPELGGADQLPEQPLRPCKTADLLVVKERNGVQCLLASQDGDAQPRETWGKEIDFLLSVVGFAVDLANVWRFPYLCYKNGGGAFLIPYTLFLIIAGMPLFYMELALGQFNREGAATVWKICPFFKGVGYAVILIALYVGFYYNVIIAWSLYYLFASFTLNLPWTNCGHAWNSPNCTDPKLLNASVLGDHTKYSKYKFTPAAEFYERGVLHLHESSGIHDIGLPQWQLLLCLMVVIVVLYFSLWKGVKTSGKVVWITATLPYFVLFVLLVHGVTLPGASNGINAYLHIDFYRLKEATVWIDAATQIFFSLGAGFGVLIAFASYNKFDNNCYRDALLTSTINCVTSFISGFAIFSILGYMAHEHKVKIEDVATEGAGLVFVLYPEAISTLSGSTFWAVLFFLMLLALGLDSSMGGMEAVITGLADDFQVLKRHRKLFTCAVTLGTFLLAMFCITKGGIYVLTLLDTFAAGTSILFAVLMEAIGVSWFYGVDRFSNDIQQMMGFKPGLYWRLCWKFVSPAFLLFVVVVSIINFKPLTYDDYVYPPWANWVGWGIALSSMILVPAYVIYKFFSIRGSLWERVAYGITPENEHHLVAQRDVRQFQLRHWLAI
The target of a further assay is T1, human GAL1 receptor (Homo sapiens, UniProt P47211).
T1 construct: expressed in transfected cells
T1 sequence (P47211 1-349): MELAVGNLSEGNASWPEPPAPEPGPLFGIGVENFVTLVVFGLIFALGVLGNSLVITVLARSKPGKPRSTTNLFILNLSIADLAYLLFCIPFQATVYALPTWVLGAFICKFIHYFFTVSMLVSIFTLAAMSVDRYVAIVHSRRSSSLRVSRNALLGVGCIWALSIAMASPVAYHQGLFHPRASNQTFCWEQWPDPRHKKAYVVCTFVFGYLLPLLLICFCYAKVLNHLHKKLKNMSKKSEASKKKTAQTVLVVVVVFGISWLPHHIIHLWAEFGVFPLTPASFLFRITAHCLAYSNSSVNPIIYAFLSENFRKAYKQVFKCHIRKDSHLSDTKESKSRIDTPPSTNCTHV
The assay can be described thus: Radioligand binding at cloned human GAL1 receptor. On the procedure: The binding properties of the pyrimidines of the present invention were evaluated at the cloned human galanin receptors, GAL1, GAL2, and GAL3, using protocols described herein. […]
LM(tk-) cells were stably transfected with the human GAL1 or GAL3 receptor. CHO cells were stably transfected with the human GAL2 receptor.
cDNAs for the human and rat GAL1, and human and rat GAL3 receptors were transfected with a G-418 resistant gene into the mouse fibroblast LM(tk-) cell line by a calcium phosphate transfection method (Cullen, 1987). Stably transfected cells were selected with G-418. Human and rat GAL2 receptors were similarly transfected into CHO cells.
Membranes were harvested from stably transfected LM(tk-) cells. Adherent cells were washed twice in ice-cold phosphate buffered saline (138 mM NaCl, 8.1 mM Na2HPO4, 2.5 mM KCl, 1.2 mM KH2PO4, 0.9 mM CaCl2, 0.5 mM MgCl2, pH 7.4) and lysed by sonication in ice-cold sonication buffer (20 mM Tris-HCl, 5 mM EDTA, pH 7.7). Large particles and debris were cleared by low speed centrifugation (200 x g, 5 min, 4°C). Membranes were collected from the supernatant fraction by centrifugation (32,000 x g, 18 min, 4°C), washed with ice-cold hypotonic buffer, and collected again by centrifugation (32,000 x g, 18 min, 4°C). The final membrane pellet was resuspended by sonication into a small volume of ice-cold binding buffer (-1 ml for every 5 plates: 10 mM NaCl, 20 mM HEPES, 0.22 mM KH2PO4, 1.26 mM CaCl2, 0.81 mM MgSO4, pH 7.4). Protein concentration was measured by the Bradford method (Bradford, 1976) using Bio-Rad Reagent, with bovine serum albumin as a standard. Membranes were held on ice for up to one hour and used fresh, or flash frozen and stored in liquid nitrogen. Membranes were prepared similarly from CHO cells.
Galanin Recentors: Binding assays were performed according to the following published methods: human GAL3 (PCT International Publication No. WO 98/15570), human GAL1 (PCT International Publication No. WO 95/2260), human GAL2 (PCT International Publication No. WO 97/26853).
as §3

Another assay relates to Male Sprague-Dawley rats. Put plainly: Rat Forced Swim Test (FST). Format: in vivo. To be noted: for antidepressant profile in the FST (conclusion): overall conclusion of the study. Here is the method: The procedure used in this study was similar to that previously described (Porsolt, et al., 1978), except the water depth (30 cm in this procedure). The greater depth in this test prevented the rats from supporting themselves by touching the bottom of the cylinder with their feet. Swim sessions were conducted by placing rats in individual plexiglass cylinders (46 cm tall x 20 cm in diameter) containing 23-25°C water 30 cm deep (Porsolt, et al. used a depth of only 15 cm; also, see Detke, et al., 1995). Two swim tests were conducted always between 1200 and 1800 hours: an initial 15-min pretest followed 24 h later by a 5-minute test. […] All other test sessions were conducted between 1300 to 1700 hours. Following all swim sessions, rats were removed from the cylinders, dried with paper towels and placed in a heated cage for 15 minutes and returned to their home cages. All test sessions were videotaped using a Panasonic color video camera and recorder for scoring later.
Male Sprague-Dawley rats (Taconic Farms, NY) were used in all experiments. Rats were housed in pairs and maintained on a 12:12-h light-dark cycle. Rats were handled for 5 minutes each day for 5 days prior to behavioral testing.
The rat's behavior was rated at 5 second intervals during the 5 minute test as one of the following: • 1. Immobility- rat remained floating in the water without struggling and was only making those movements necessary to keep its head above water; • 2. Climbing - rat was making active movements with its forepaws in and out of the water, usually directed against the walls; • 3. Swimming - rat was making active swimming motions, more than necessary to merely maintain its head above water, e.g. moving around in the cylinder; and • 4. Diving - entire body of the rat was submerged.
All of the behavior scoring was done by a single rater, who was blind to the treatment condition. The rater was also present in the room throughout the entire test period.
All injections were given using 1 cc tuberculin syringe with 26 3/8 gauge needles (Becton-Dickinson, VWR Scientific, Bridgeport, NJ). The volume of injection was 1 ml/kg.
The drugs were dissolved in 100% N,N-dimethylacetamide. All administrations were given using 1 cc tuberculin syringes, to which a 3 inch, curved, stainless steel gavage needle was attached. The volume of administration was 1 ml/kg.
The compounds were dissolved in 100% N,N-dimethylacetamide. All administrations were given using 1 cc tuberculin syringes, to which a 3 inch, curved, stainless steel gavage needle was attached. The volume of administration was 1 ml/kg.
The forced swim test data (immobility, swimming, climbing, diving) were subjected to a randomized, one-way ANOVA and post hoc tests conducted using the Student-Newman-heuls test. The data were analyzed using the GBSTAT program, version 6.5 (Dynamics Microsystems, Inc., Silver Spring, MD, 1997). All data are presented as means ± S.E.M.

Setting [3] is: pyrimidines, read-out: Ki GalR1.
Where [4] appears, read: 0.3 mg/kg p.o., single administration, 1 hr. before test.
Where [5] appears, read: 1 mg/kg p.o., single administration, 1 hr. before test.
Where [6] appears, read: 3 mg/kg p.o., single administration, 1 hr. before test.
[7] abbreviates: 10 mg/kg p.o., single administration, 1 hr. before test.
[8] abbreviates: 30 mg/kg p.o., single administration, 1 hr. before test.
Setting [9] is: 30 mg/kg i.p., single injection, 5 minute test.

Structures are written as SMILES. Read-outs that look alike come from different tables or passages of the source. Marks after values point to notes of the source that are not given here. Bounds are passed on as bounds.

For orientation: Ki means a dissociation constant, usually derived from enzyme kinetics or from competition with a known ligand. `CN(C)c1cc(Nc2ccc(Cl)c(Cl)c2)nc(Nc2ccccc2)n1` [Example 60]: the “selectivity ratio rNE Uptk” value in the assay with NE transporter [1] is greater than 100. Besides, the Ki was 46.1 µM on NE transporter [2] and greater than 5 µM on human GAL1 receptor (setting [3]).
Take `COc1cccc(Nc2cc(N3CCCCC3)nc(N(C)CCc3c[nH]c4ccccc34)n2)c1` [Example 17]: the “selectivity ratio rNE Uptk” value with NE transporter [1] is greater than 100. For the same molecule, the Ki at NE transporter [2] came out at 18.3 µM.
Turning to `Cc1ccc(Nc2cc(N3CCCCC3)nc(N3CCN(c4ncccc4C(F)(F)F)CC3)n2)cc1` [Example 34], the “selectivity ratio rNE Uptk” value with NE transporter [1] was greater than 100. In the assay with Male Sprague-Dawley rats (setting [4]), the Climbing worked out at 3.3 ± 0.7, the Diving was 0.2 ± 0.1, the Immobility is 45 ± 1.5^a and the Swimming is reported as 11.6 ± 0.9^d. Besides, in the assay with Male Sprague-Dawley rats (setting [5]), the Climbing is on record as 5.0 ± 0.8^c, the Diving was 0.3 ± 0.2, the Immobility was 35 ± 1.9^b and the Swimming is listed as 19.6 ± 1.3^d,e. For the same molecule, in the assay on Male Sprague-Dawley rats (setting [6]), the Climbing came out at 4.3 ± 0.8, the Diving came out at 0.3 ± 0.3, the Immobility is on record as 35 ± 2.0^b and the Swimming was 20.8 ± 1.3^d,e. In the assay with Male Sprague-Dawley rats (setting [7]), the Climbing is on record as 2.0 ± 0.4, the Diving was determined as 0.4 ± 0.3, the Immobility amounted to 49 ± 1.4 and the Swimming was found to be 8.2 ± 1.2. For the same molecule, the “antidepressant profile in the FST (conclusion)” value with Male Sprague-Dawley rats is reported as “resembles that of antidepressants”. The Ki at human GAL1 receptor (setting [3]) was 0.912 µM.
As to `O=C1C(=Nc2ccc(Cl)cc2)c2ccccc2N1c1ccccc1` [Example 97, 3-[(4-CHLOROPHENYL)IMINO]-1-PHENYL-1,3-DIHYDRO-2H-INDOL-2-ONE], the “selectivity ratio rNE Uptk” value in the assay on NE transporter [1] is listed as greater than 30. The inhibitory constant (Ki) on NE transporter [2] is 4.41 µM; on human GAL1 receptor (indolones, read-out: Ki GalR1) it was greater than 10 µM.
Take `COC[C@@H]1[C@@H](c2ccccc2)OCCN1c1nc(Nc2ccc(C)cc2)cc(N2CCCCC2)n1` [Example 49]: in the assay on Male Sprague-Dawley rats (setting [6]), the Climbing was 3.0 ± 0.7, the Diving amounted to 1.0 ± 0.7, the Immobility was 43 ± 1.9 and the Swimming is 13.1 ± 1.4. Besides, in the assay on Male Sprague-Dawley rats (setting [7]), the Climbing was 2.4 ± 0.7, the Diving stood at 0.0 ± 0.0, the Immobility was 48 ± 1.7 and the Swimming is listed as 10.0 ± 1.0. In addition, in the assay on Male Sprague-Dawley rats (setting [8]), the Climbing was 2.3 ± 0.4, the Diving was found to be 0.4 ± 0.4, the Immobility is given as 41 ± 2.0^a and the Swimming is reported as 16.7 ± 1.3^d. In addition, at human GAL1 receptor (read-out: Ki GalR1, pyrimidines), the Ki was greater than 5 µM.
Consider `O=C1C(=Nc2cc(Cl)cc(Cl)c2)c2ccccc2N1c1ccccc1` [Example 103, 3-[(3,5-DICHLOROPHENYL)IMINO]-1-PHENYL-1,3-DIHYDRO-2H-INDOL-2-ONE], for which, in the assay on Male Sprague-Dawley rats (setting [6]), the Climbing was 2.8 ± 0.6, the Diving is listed as 0.5 ± 0.4 and the Immobility amounted to 44 ± 2.7. For the same molecule, in the assay on Male Sprague-Dawley rats (setting [7]), the Climbing was determined as 3.5 ± 0.6, the Diving is 0.4 ± 0.2, the Immobility was 42 ± 2.2 and the Swimming is 14.3 ± 1.6. Moreover, in the assay with Male Sprague-Dawley rats (setting [8]), the Climbing came to 4.8 ± 0.7, the Diving was 1.1 ± 0.5, the Immobility is reported as 32 ± 1.8^a and the Swimming is reported as 22.7 ± 1.1^c. Moreover, the “antidepressant profile in the FST (conclusion)” value with Male Sprague-Dawley rats is “has antidepressant properties”. At human GAL1 receptor (indolones, read-out: Ki GalR1), the Ki is greater than 10 µM.
Turning to `Cc1ccc(Nc2cc(N3CCCCC3)nc(N(C)CCc3c[nH]c4ccccc34)n2)cc1` [Example 11], the “selectivity ratio rNE Uptk” value in the assay on NE transporter [1] is reported as greater than 100.
Consider `CN(CCc1c[nH]c2ccccc12)c1nc(Nc2ccc(F)c(F)c2)cc(N2CCCCC2)n1` [Example 15], for which, in the assay on NE transporter [1], the “selectivity ratio rNE Uptk” value was greater than 100. In addition, the inhibition constant (Ki) at human GAL1 receptor (setting [3]) came out at 2.43 µM.
Take `Cc1ccc(Nc2cc(N(C)C)nc(N(C)CCc3c[nH]c4ccccc34)n2)cc1` [Example 77]: in the assay on NE transporter [1], the “selectivity ratio rNE Uptk” value is recorded as greater than 100. Also, the inhibition constant (Ki) amounted to 28.1 µM on NE transporter [2] and 3.8 µM on human GAL1 receptor (setting [3]).
As to `O=C1C(=Nc2cccc(Cl)c2)c2ccccc2N1c1ccccc1` [Example 94, 3-[(3-CHLOROPHENYL)IMINO]-1-PHENYL-1,3-DIHYDRO-2H-INDOL-2-ONE], in the assay with NE transporter [1], the “selectivity ratio rNE Uptk” value was greater than 30. Moreover, the inhibition constant (Ki) on NE transporter [2] is 4.88 µM; on human GAL1 receptor (indolones, read-out: Ki GalR1), greater than 10 µM.
With `O=C1C(=Nc2cccc(C(F)(F)F)c2)c2ccccc2N1c1ccccc1` [Example 92, 1-PHENYL-3- [[3-(TRIFLUOROMETHYL)PHENYL]IMINO]-1,3-DIHYDRO-2H-INDOL-2-ONE], the Climbing in the assay on Male Sprague-Dawley rats (1 mg/kg i.p., single injection, 5 minute test) stood at 11.7 ± 1.1 counts; in the assay with Male Sprague-Dawley rats (3 mg/kg i.p., single injection, 5 minute test), 14.6 ± 1.5 counts; with Male Sprague-Dawley rats (setting [9]) it was 8.6 ± 1.7 counts. In addition, the Immobility in the assay on Male Sprague-Dawley rats (setting [9]) came out at 25 ± 3.5 counts.

Values taken from patent EP2140864A2 (H. Lundbeck A/S, priority 2001, dated 2002).
